Patent US7432045B2 (priority 2003, dated 2008)
pEC50, pIC50: −log10 of the molar value. Read-outs that look alike come from different tables or passages of the source. Peptide text beside a SMILES is read from it.

Assays:
hrR3 = test: Virucidal assay; type: cell-based, HSV-1
Procedure: […] The treated virus was diluted 200-fold with serum-supplemented DMEM and assayed for infectivity approximately 1 hour later in microtiter wells seeded with Vero cells (3.5×10^4 cells/well) 1 d earlier. Forty or 100 microliter volumes of diluted virus were adsorbed for 1 or 2 h at 37° C. and lacZ^+ cells were scored 8 hours later. In some experiments, aliquots of diluted virus were first dialyzed (Spectra/Por; MWCO 12-14,000) overnight at 4° C. against a 60-fold excess volume of Hepes-buffered serum-supplemented DMEM or forced by syringe through 0.22 μm membranes (Millex-GV; Millipore) before the remaining infectious virus was assayed.

HSV-1 KOS mutant hrR3 = conditions: read-out: IC50 (lacZ+ cells)
HSV-1 KOS virions = test: Electron microscopy of peptide-treated virus (aggregation)
Procedure: Electron microscopy: Purified HSV-1 KOS virions (2.5×10^7 pfu/mL) according to Visalli et al., Virus Res. 29:167 (1993) were treated with 25 μM antiviral peptide SEQ ID NO:1 or the control peptide EBX (SEQ ID NO:17) in 40 μL serum-free DMEM buffered with 25 mM Hepes (pH 7.4) for 5 to 60 min at 4 or 23° C. Aliquots (10 μL) were adsorbed to pioloform poly-L-lysine-coated grids for 5 min at 23° C. Grids were rinsed with PBS, stained with 2% phosphotungstic acid (PTA) in water adjusted to pH ˜6, and air dried. Alternatively, virus was pre-adsorbed to grids and treated with peptides thereafter. A total of 4×10^9 pfu/mL of purified HSV-1 KOS in 5 μL PBS was applied to the coated grids for 5 min at 23° C., and the grids were rinsed once with serum-free DMEM buffered with 25 mM Hepes (pH 7.4) and treated with 15 μL of 5 mM EB or EBX in the same medium for 30 min at 37° C. The pH of highly concentrated solutions of antiviral peptide SEQ ID NO:1 and EBX was re-adjusted to 7.4 with NaOH prior to use. To prevent evaporation of the peptide-containing solutions, each grid was held in a Hiraoka flexible staining plate and covered with a miniature bell jar made from an 0.5 mL polypropylene micro-centrifuge tubes, small enough for the 15 μL to fill half of the bell jar facing the coated surface of the grid. The entire assembly was then incubated in a moist chamber for 30 min at 37° C. […]

in vitro = conditions: African green monkey
HSV-1 KOS = test: Plaque reduction assay; type: cell-based
Procedure: Cell culture and virus: The procedures for growing Vero cells and preparing high titer stocks of HSV-1 KOS as described in Grau et al., Invest. Ophthal. and Vis. Sci. 30: 2474 (1989) were utilized. Vero cells were maintained in carbonate-buffered DMEM supplemented with 5% calf serum and 5% fetal bovine serum (regular medium). For some studies, cells were switched to serum-free DMEM buffered with 25 mM HEPES (pH 7.4) and allowed to adapt to that medium for 30 min prior to experimental treatments. Vero cells were seeded into wells (0.28 cm^2) of microtiter plates either at 3.5×10^4 cells/well for use 1 day later (8×10^4 cells/well) or at 1×10^4 cells/well for use 3 days later (2×10^5 cells/well).
Plaque reduction assay: Confluent Vero cell cultures in microtiter plates were infected for 1 hour at 37° C. in 40 μL of medium. Except where indicated, peptide treatments in 40 μL of medium lasted from 1 hour before through 1 hour after infection. At the end of the adsorption period, the cultures were re-fed with 100 μL of regular medium. Plaque formation was scored 2 days later and the number of plaques scored per well was normalized to the number counted in the absence of peptide. Using an ocular micrometer, plaque size (π/2×L×S) was determined by measuring the largest plaque diameter (L) and the diameter at a 90° angle to that (S). The size of each of the first 40 scored plaques was measured except when a plaque included less than 10 rounded cells or touched the side of the well.

MTS assay = conditions: human, CEMx174 cells (T-B hybridoma)

CC(C)C[C@H](NC(=O)[C@H](C)NC(=O)[C@H](CC(C)C)NC(=O)[C@H](CC(C)C)NC(=O)[C@@H](NC(=O)[C@H](C)NC(=O)[C@@H]1CCCN1C(=O)[C@H](CC(C)C)NC(=O)[C@H](CC(C)C)NC(=O)[C@H](C)NC(=O)[C@@H](NC(=O)[C@H](C)NC(=O)[C@H](C)NC(=O)[C@H](CCCCN)NC(=O)[C@H](CCCCN)NC(=O)[C@H](CCCNC(=N)N)NC(=O)[C@@H](N)CCCNC(=N)N)C(C)C)C(C)C)C(=O)N[C@@H](CC(C)C)C(=O)N[C@@H](C)C(=O)N1CCC[C@H]1C(=O)O [EB] (H-RRKKAAVALLPAVLLALLAP-OH)
reversibility of virion inactivation by overnight dialysis (hrR3): irreversibly inactivated
pIC50 (hrR3; 4° C., read-out: Virucidal Activity 4° C. IC50): 4.05
pIC50 (hrR3; first experiment, FIG. 8A, read-out: inhibition of infectivity of virions IC50): 4.36
pIC50 (hrR3; second experiment, FIG. 8B, read-out: inhibition of infectivity of virions IC50): 4.16
pIC50 (HSV-1 KOS mutant hrR3; virus input 19 pfu/well): 6.18
pIC50 (HSV-1 KOS mutant hrR3; virus input 210 pfu/well): 5.92
pIC50 (HSV-1 KOS mutant hrR3; virus input 5700 pfu/well): 4.96
aggregation of virus particles (HSV-1 KOS virions; 25 μM peptide): nearly all of the particles were seen in relatively few large aggregates
time of aggregate formation (HSV-1 KOS virions; room temperature as well as 4° C.): < 5 min
pIC50 (in vitro): 4.17
reduction of mean plaque size (HSV-1 KOS; 25 μM added 1 hour post-infection): 70%
mean plaque size (HSV-1 KOS; 25 μM added 1 hour post-infection, untreated 66,000±6200): 6900±2600 μm^2
combined mean plaque size after transient treatments (HSV-1 KOS; 6 and 12 μM, up to 1 hour post-infection): 68,000±11,000 μm^2
fold lower concentration blocking infections compared to EBX (HSV-1 KOS; absence of serum, FIG. 1B): 100 fold
pIC50 (HSV-1 KOS; absence of serum, FIG. 1B, read-out: antiviral IC50 (plaque formation)): 6.15
fold lower concentration blocking infections compared to EBX (HSV-1 KOS; presence of serum (FIG. 1A)): 10 fold
pIC50 (HSV-1 KOS; present continuously after infection, read-out: inhibition of plaque expansion IC50): 4.92
pIC50 (HSV-1 KOS; present continuously starting 1 hour post-infection, read-out: plaque number IC50): 4.62
pIC50 (HSV-1 KOS; present during infection and 1 hour pre- and post-infection, read-out: plaque number IC50): 5.26
pEC50 (MTS assay): 4.30
